Data as given in patent publication US20240360157A1, “TYK2 INHIBITORS” (BIOGEN MA INC., priority 2021, published 2024).

Tests used:
Assay type in all cases: biochemical
[1] = target: human JAK3 catalytic kinase (JH1) domain (Homo sapiens (Human), UniProt P52333); test: ADP-Glo Kinase Assay, recombinant JAK3 catalytic kinase (JH1) domain; details: recombinant JH1 domain 0.3 nM, 4 μM ATP, JAK3-974 peptide, mean, read-out: JAK3 biochem IC50 (nM) Mean
Summary of the method: (§1)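 Reactions contain 50 μM peptide and run 100 minutes, with enzyme at 4, 0.2, 0.3 and 2 nM for JAK1, JAK2, JAK3 and TYK2. Generated ADP is read by luminescence; IC50 derives from normalized dose-response curves.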

[2] = target: human JAK1 catalytic kinase (JH1) domain (Homo sapiens (Human), UniProt P23458); test: ADP-Glo Kinase Assay, recombinant JAK1 catalytic kinase (JH1) domain; details: recombinant JH1 domain 4 nM, 35 μM ATP, JAK3-342 peptide, mean, read-out: JAK1 biochem IC50 (nM) Mean
Summary of the method: as §1

[3] = target: human JAK2 catalytic kinase (JH1) domain (Homo sapiens (Human), UniProt O60674); test: ADP-Glo Kinase Assay, recombinant JAK2 catalytic kinase (JH1) domain; details: recombinant JH1 domain 0.2 nM, 15 μM ATP, JAK3-974 peptide, mean, read-out: JAK2 biochem IC50 (nM) Mean
Summary of the method: as §1

[4] = target: human TYK2 catalytic kinase (JH1) domain (Homo sapiens (Human), UniProt P29597); test: ADP-Glo Kinase Assay, recombinant TYK2 catalytic kinase (JH1) domain; details: recombinant JH1 domain 2 nM, 10 μM ATP, JAK3-974 peptide, mean, read-out: TYK2 biochem IC50 (nM) Mean
Summary of the method: as §1

human JAK2 catalytic kinase (JH1) domain, sequence (O60674 849-1124): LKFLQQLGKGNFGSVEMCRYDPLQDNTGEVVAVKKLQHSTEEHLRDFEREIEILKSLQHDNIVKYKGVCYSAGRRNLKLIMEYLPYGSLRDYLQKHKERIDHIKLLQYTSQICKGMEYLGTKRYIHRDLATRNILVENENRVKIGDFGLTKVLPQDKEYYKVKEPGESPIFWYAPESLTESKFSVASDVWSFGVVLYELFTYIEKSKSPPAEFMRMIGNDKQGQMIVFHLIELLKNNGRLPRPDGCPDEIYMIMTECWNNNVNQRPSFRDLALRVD
human JAK3 catalytic kinase (JH1) domain, sequence (P52333 822-1111): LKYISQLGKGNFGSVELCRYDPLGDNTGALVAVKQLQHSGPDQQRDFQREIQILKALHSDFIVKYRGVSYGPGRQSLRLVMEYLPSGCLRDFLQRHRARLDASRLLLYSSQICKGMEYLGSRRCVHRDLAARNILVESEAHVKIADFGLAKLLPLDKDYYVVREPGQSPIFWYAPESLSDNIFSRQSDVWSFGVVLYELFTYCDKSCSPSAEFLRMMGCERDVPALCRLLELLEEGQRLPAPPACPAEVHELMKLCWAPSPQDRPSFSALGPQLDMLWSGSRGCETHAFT
human JAK1 catalytic kinase (JH1) domain, sequence (P23458 875-1153): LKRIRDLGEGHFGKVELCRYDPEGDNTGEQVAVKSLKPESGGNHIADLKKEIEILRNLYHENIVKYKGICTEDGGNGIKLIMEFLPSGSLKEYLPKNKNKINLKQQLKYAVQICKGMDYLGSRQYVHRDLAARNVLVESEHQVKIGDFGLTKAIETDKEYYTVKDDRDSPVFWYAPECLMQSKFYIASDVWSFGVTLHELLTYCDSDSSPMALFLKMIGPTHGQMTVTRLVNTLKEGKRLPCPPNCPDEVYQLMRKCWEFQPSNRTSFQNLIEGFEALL
human TYK2 catalytic kinase (JH1) domain, sequence (P29597 897-1176): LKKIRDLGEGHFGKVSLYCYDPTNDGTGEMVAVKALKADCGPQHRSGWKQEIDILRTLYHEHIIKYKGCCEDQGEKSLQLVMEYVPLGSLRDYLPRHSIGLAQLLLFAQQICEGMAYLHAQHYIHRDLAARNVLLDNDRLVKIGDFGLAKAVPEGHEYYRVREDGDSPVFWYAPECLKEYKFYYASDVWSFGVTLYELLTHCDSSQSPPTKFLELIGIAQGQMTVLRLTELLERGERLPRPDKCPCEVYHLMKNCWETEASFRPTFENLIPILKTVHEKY

Structure (SMILES) | IC50 [1] | IC50 [2] | IC50 [3] | IC50 [4]
O=C(C1CC1)N1C2CCC1CN(c1ncnn3cc(-c4cnn(C(F)F)c4)c(F)c13)C2 [Example 163] | 10000 nM | 5120 nM | 10000 nM | 746 nM
O=C([C@@H]1C[C@H]1F)N1C2CCC1CN(c1ncnn3cc(-c4ccnc(F)c4)cc13)C2 [Example 164] | 7250 nM | 447 nM | 1300 nM | 48.8 nM
Cn1cc(-c2cc3c(N4CC5CCC(C4)N5C(=O)[C@@H]4C[C@H]4F)ncnn3c2)ccc1=O [Example 165] | 4140 nM | 478 nM | 902 nM | 40.3 nM
Cc1cc(-c2cc3c(N4CC5CCC(C4)N5C(=O)[C@@H]4C[C@H]4F)ncnn3c2)on1 [Example 166] | 9260 nM | 1160 nM | 1050 nM | 56 nM
Cn1cc(-c2cc3c(N4CC5CCC(C4)N5C(=O)[C@@H]4C[C@H]4F)ncnn3c2)cc(F)c1=O [Example 167] | 10000 nM | 2210 nM | 1740 nM | 95 nM
Cc1c(-c2cc3c(N4CC5CCC(C4)N5C(=O)C4CC4)ncnn3c2)cnn1C [Example 168] | 7690 nM | 5470 nM | 7850 nM | 317 nM
O=C([C@@H]1C[C@H]1F)N1C2CCC1CN(c1ccnn3cc(-c4ccc(F)nc4)cc13)C2 [Example 169] | 288 nM | 47 nM | 49 nM | 1.8 nM
O=C([C@@H]1C[C@H]1F)N1C2CCC1CN(c1ccnn3cc(-c4ccnc(F)c4)cc13)C2 [Example 170] | 344 nM | 25 nM | 36 nM | 1.2 nM
Cn1ccc(-c2cc3c(N4CC5CCC(C4)N5C(=O)[C@@H]4C[C@H]4F)ccnn3c2)cc1=O [Example 171] | 322 nM | 136 nM | 28 nM | 1.5 nM
Cn1cc(-c2cc3c(N4CC5CCC(C4)N5C(=O)[C@@H]4C[C@H]4F)ccnn3c2)ccc1=O [Example 172] | 595 nM | 32 nM | 54 nM | 2.6 nM
Cc1cc(-c2cc3c(N4CC5CCC(C4)N5C(=O)[C@@H]4C[C@H]4F)ccnn3c2)on1 [Example 173] | 793 nM | 81 nM | 37 nM | 2.4 nM
Cn1cc(-c2cc3c(N4CC5CCC(C4)N5C(=O)[C@@H]4C[C@H]4F)ccnn3c2)cc(F)c1=O [Example 174] | 1600 nM | 149 nM | 84 nM | 6.6 nM
O=C([C@@H]1C[C@H]1F)N1C2CCC1CN(c1ccnn3cc(C4CCOC4)cc13)C2 (stereo partly drawn) [Example 175, ((1S,2R)-2-fluorocyclopropyl)(3-(6-(tetrahydrofuran-3-yl)pyrrolo[1,2-b]pyridazin-4-yl)-3,8-diazabicyclo[3.2.1]octan-8-yl)methanone] | ≥ 10000 nM | ≥ 10000 nM | ≥ 10000 nM | 847 nM
N#Cc1cccc(-c2cc3c(N4CC5CCC(C4)N5C(=O)C4CC4)ncnn3c2)c1 [Example 176] | 9890 nM | 3560 nM | 10000 nM | 830 nM
O=C(C1CC1)N1C2CCC1CN(c1ncnn3cc(-c4ccccc4)cc13)C2 [Example 177] | 4670 nM | 1230 nM | 10000 nM | 300 nM
COc1ccc(-c2cc3c(N4CC5CCC(C4)N5C(=O)C4CC4)ncnn3c2)cn1 [Example 178] | 6270 nM | 2020 nM | 10000 nM | 719 nM
O=C(C1CC1)N1C2CCC1CN(c1ncnn3cc(-c4ccc(Cl)nc4)cc13)C2 [Example 179] | 9270 nM | 5400 nM | 10000 nM | 684 nM
O=C(C1CC1)N1C2CCC1CN(c1ncnn3cc(-c4ccnc(Cl)c4)cc13)C2 [Example 180] | 10000 nM | 4750 nM | 10000 nM | 547 nM
O=C(C1CC1)N1C2CCC1CN(c1ncnn3cc(-c4ccncc4)cc13)C2 [Example 181] | 5520 nM | 1040 nM | 7860 nM | 229 nM

Structure (SMILES) | IC50 [1] | IC50 [2] | IC50 [3] | IC50 [4]
O=C(C1CC1)N1C2CCC1CN(c1ncnn3cc(-c4ccccc4F)cc13)C2 [Example 182] | 8600 nM | 3660 nM | 10000 nM | 704 nM
O=C(C1CC1)N1C2CCC1CN(c1ncnn3cc(-c4cccnc4)cc13)C2 [Example 183] | 8640 nM | 3290 nM | 10000 nM | 557 nM
O=C(C1CC1)N1C2CCC1CN(c1ncnn3cc(-c4ccc5nncn5c4)cc13)C2 [Example 184] | 6270 nM | 2340 nM | 7480 nM | 230 nM
COc1ccc(-c2cc3c(N4CC5CCC(C4)N5C(=O)C4CC4)ncnn3c2)cc1C#N [Example 185] | 10000 nM | 2540 nM | 10000 nM | 398 nM
Cn1cc(-c2cc3c(N4CC5CCC(C4)N5C(=O)C4CC4)ncnn3c2)nn1 [Example 186, cyclopropyl(3-(6-(1-methyl-1H-1,2,3-triazol-4-yl)pyrrolo[2,1-f][1,2,4]triazin-4-yl)-3,8-diazabicyclo[3.2.1]octan-8-yl)methanone] | ≥ 10000 nM | ≥ 10000 nM | 9850 nM | 845 nM
Cn1cc(-c2cc3c(N4CC5CCC(C4)N5S(=O)(=O)C4CC4)ncnn3c2)cn1 [Example 187, 4-(8-(cyclopropylsulfonyl)-3,8-diazabicyclo[3.2.1]octan-3-yl)-6-(1-methyl-1H-pyrazol-4-yl)pyrrolo[2,1-f][1,2,4]triazine] | 9430 nM | 9660 nM | 5410 nM | 643 nM
O=S(=O)(C1CC1)N1C2CCC1CN(c1ncnn3cc(-c4cnn(C(F)F)c4)cc13)C2 [Example 188, 4-(8-(cyclopropylsulfonyl)-3,8-diazabicyclo[3.2.1]octan-3-yl)-6-(1-(difluoromethyl)-1H-pyrazol-4-yl)pyrrolo[2,1-f][1,2,4]triazine] | 9390 nM | 9740 nM | 5890 nM | 615 nM
Cn1cc(-c2cc3c(N4CC5CCC(C4)N5S(=O)(=O)C4CC4)ccnn3c2)cn1 [Example 189, 4-(8-(cyclopropylsulfonyl)-3,8-diazabicyclo[3.2.1]octan-3-yl)-6-(1-methyl-1H-pyrazol-4-yl)pyrrolo[1,2-b]pyridazine] | 1020 nM | 1210 nM | 208 nM | 46.5 nM
COc1cc(-c2cc3c(N4CC5CCC(C4)N5S(=O)(=O)C4CC4)ccnn3c2)ccn1 [Example 190] | 2750 nM | 324 nM | 280 nM | 64.4 nM
Cn1cc(-c2cc3c(N4CC5CCC(C4)N5S(=O)(=O)C4CC4)ncnc3[nH]2)cn1 [Example 191] | 650 nM | 1780 nM | 601 nM | 102 nM
COc1cc(-c2cc3c(N4CC5CCC(C4)N5S(=O)(=O)C4CC4)ncnc3[nH]2)ccn1 [Example 192] | 10000 nM | 1860 nM | 3060 nM | 298 nM
Cn1cc(-c2cc3c(N4CC5CCC(C4)N5S(=O)(=O)C4CC4)ccnc3[nH]2)cn1 [Example 193] | 199 nM | 200 nM | 36 nM | 10.1 nM
COc1cc(-c2cc3c(N4CC5CCC(C4)N5S(=O)(=O)C4CC4)ccnc3[nH]2)ccn1 [Example 194] | 612 nM | 116 nM | 80 nM | 21 nM
Cn1cc(-c2nc3c(N4CC5CCC(C4)N5S(=O)(=O)C4CC4)ccnc3[nH]2)cn1 [Example 195] | 306 nM | 194 nM | 38 nM | 20.6 nM
COc1cc(-c2nc3c(N4CC5CCC(C4)N5S(=O)(=O)C4CC4)ccnc3[nH]2)ccn1 [Example 196] | 1000 nM | 216 nM | 168 nM | 66.3 nM
Cn1cc(-c2cc3c(N4CC5CCC(C4)N5S(=O)(=O)[C@H]4CC4(F)F)ccnn3c2)cn1 [Example 197, 4-(8-(((S)-2,2-difluorocyclopropyl)sulfonyl)-3,8-diazabicyclo[3.2.1]octan-3-yl)-6-(1-methyl-1H-pyrazol-4-yl)pyrrolo[1,2-b]pyridazine] | 701 nM | 322 nM | 99 nM | 16.7 nM
Cn1cc(-c2cc3c(N4CC5CCC(C4)N5S(=O)(=O)[C@@H]4CC4(F)F)ccnn3c2)cn1 [Example 198, 4-(8-(((R)-2,2-difluorocyclopropyl)sulfonyl)-3,8-diazabicyclo[3.2.1]octan-3-yl)-6-(1-methyl-1H-pyrazol-4-yl)pyrrolo[1,2-b]pyridazine] | 652 nM | 266 nM | 95 nM | 15.1 nM
Cn1cc(-c2nc3c(N4CC5CCC(C4)N5C(=O)C4CC4)ccnc3[nH]2)cn1 [Example 199, cyclopropyl(3-(2-(1-methyl-1H-pyrazol-4-yl)-3H-imidazo[4,5-b]pyridin-7-yl)-3,8-diazabicyclo[3.2.1]octan-8-yl)methanone] | 219 nM | 92 nM | 56 nM | 6.2 nM
